# Results: US12428406B2 (PMV Pharmaceuticals, Inc., priority 2019, dated 2025)
# Target: T1, p53 Y220C (Homo sapiens, UniProt P04637, Y220C)
# T1 construct: The recombinant protein was a truncation mutant containing only amino acids 94-312 of p53; made in house; host or cells: E. coli
# Test: In vitro DNA binding activity assay (HTRF / TR-FRET): stabilization of p53 Y220C and increase of its DNA binding activity
# Assay type: biochemical
# Details: recombinant His-tagged p53 Y220C DNA binding domain (aa 94-312), biotin-labeled consensus DNA, incubated at 27° C. or 29° C. for 60 min
# How it was run: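 His-tagged p53 Y220C, E. coli-expressed, binding biotin-labeled consensus DNA measured by HTRF (anti-His-APC, streptavidin-europium). Compounds from 4.5 mM DMSO stocks, 3-fold serial dilutions; incubations at room temperature 15 min, then 20 min. SC150 = concentration raising DNA binding by 50%.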
# T1 sequence (P04637 94-312, change not shown): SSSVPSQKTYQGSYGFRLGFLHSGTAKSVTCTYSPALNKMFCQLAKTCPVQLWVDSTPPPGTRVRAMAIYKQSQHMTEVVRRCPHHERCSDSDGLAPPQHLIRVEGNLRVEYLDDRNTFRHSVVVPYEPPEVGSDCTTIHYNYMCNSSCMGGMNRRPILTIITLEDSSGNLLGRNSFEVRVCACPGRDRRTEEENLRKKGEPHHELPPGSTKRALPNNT
row,SC150 (concentration of the compound required to increase the DNA binding activity by 50%),SMILES
1,+ (+ = 0 μM ≤ SC150 < 0.05 μM),"COCC(O)CN1CCC(Nc2cccc3c2cc(C#CCNc2cc(F)c(S(C)(=O)=O)cc2OC)n3CC(F)(F)F)CC1 (stereo not drawn) [Compound 677A, 1-{4-[(2-{3-[(5-fluoro-4-methanesulfonyl-2-methoxyphenyl)amino]prop-1-yn-1-yl}-1-(2,2,2-trifluoroethyl)-1H-indol-4-yl)amino]piperidin-1-yl}-3-methoxypropan-2-ol]"
2,+ (+ = 0 μM ≤ SC150 < 0.05 μM),"COc1cc(S(C)(=O)=O)ccc1NCC#Cc1cc2c(NC3CCN(C4COC4)CC3)cccc2n1CC(F)(F)F [Compound 678A, 2-{3-[(4-methanesulfonyl-2-methoxyphenyl)amino]prop-1-yn-1-yl}-N-[1-(oxetan-3-yl)piperidin-4-yl]-1-(2,2,2-trifluoroethyl)-1H-indol-4-amine]"
3,+ (+ = 0 μM ≤ SC150 < 0.05 μM),"COCC(O)CN1CCC(Nc2cccc3c2cc(C#CCNc2cc(F)c(C(N)=O)cc2OC)n3CC(F)(F)F)CC1 (stereo not drawn) [Compound 683A, 2-fluoro-4-{[3-(4-{[1-(2-hydroxy-3-methoxypropyl)piperidin-4-yl]amino}-1-(2,2,2-trifluoroethyl)-1H-indol-2-yl)prop-2-yn-1-yl]amino}-5-methoxybenzamide]"
4,+ (+ = 0 μM ≤ SC150 < 0.05 μM),"COCC(O)CN1CCC(Nc2cccc3c2cc(C#CCNc2ccc(S(=O)(=O)C4CC4)cc2OC)n3CC(F)(F)F)CC1 (stereo not drawn) [Compound 685A, 1-(4-{[2-(3-{[4-(cyclopropanesulfonyl)-2-methoxyphenyl]amino}prop-1-yn-1-yl)-1-(2,2,2-trifluoroethyl)-1H-indol-4-yl]amino}piperidin-1-yl)-3-methoxypropan-2-ol]"
5,+ (+ = 0 μM ≤ SC150 < 0.05 μM),COc1cc(S(C)(=O)=O)ccc1NCC#Cc1cc2c(NC3CCN(CCC#N)CC3)cccc2n1CC(F)(F)F [Compound 686A]
6,+ (+ = 0 μM ≤ SC150 < 0.05 μM),"COc1cc(S(C)(=O)=O)ccc1NCC#Cc1cc2c(NC3CCN(CC4CCCO4)CC3)cccc2n1CC(F)(F)F (stereo not drawn) [Compound 688A, 2-{3-[(4-methanesulfonyl-2-methoxyphenyl)amino]prop-1-yn-1-yl}-N-{1-[(oxolan-2-yl)methyl]piperidin-4-yl}-1-(2,2,2-trifluoroethyl)-1H-indol-4-amine]"
7,+++ (+++ = 0.1 μM ≤ SC150 < 0.2 μM),"COCC(O)CN1CCC(Nc2cccc3c2cc(C#CCNc2ccc(C(F)(F)F)cc2OC)n3CC(F)(F)F)CC1 (stereo not drawn) [Compound 689A, 1-methoxy-3-(4-{[2-(3-{[2-methoxy-4-(trifluoromethyl)phenyl]amino}prop-1-yn-1-yl)-1-(2,2,2-trifluoroethyl)-1H-indol-4-yl]amino}piperidin-1-yl)propan-2-ol]"
8,+ (+ = 0 μM ≤ SC150 < 0.05 μM),"CNC(=O)c1cc(OC)c(NCC#Cc2cc3c(NC4CCN(CC(O)COC)CC4)cccc3n2CC(F)(F)F)cc1F (stereo not drawn) [Compound 690A, 2-fluoro-4-{[3-(4-{[1-(2-hydroxy-3-methoxypropyl)piperidin-4-yl]amino}-1-(2,2,2-trifluoroethyl)-1H-indol-2-yl)prop-2-yn-1-yl]amino}-5-methoxy-N-methylbenzamide]"
9,+ (+ = 0 μM ≤ SC150 < 0.05 μM),"COCC(O)CN1CCC(Nc2cccc3c2cc(C#CCNc2ccc(S(=O)(=O)c4ccccc4)cc2OC)n3CC(F)(F)F)CC1 (stereo not drawn) [Compound 691A, 1-(4-{[2-(3-{[4-(benzenesulfonyl)-2-methoxyphenyl]amino}prop-1-yn-1-yl)-1-(2,2,2-trifluoroethyl)-1H-indol-4-yl]amino}piperidin-1-yl)-3-methoxypropan-2-ol]"
